Laboratory results as given in paper PMC5378956, “Inhibition of delta-secretase improves cognitive functions in mouse models of Alzheimer's disease” (Nature Communications, 2017).

What was measured:
tau P301S mice = test system: tau P301S mice
Method: (§1) Only 2-month-old male mice were used in the present study. Sample size was determined by Power and Precision (Biostat). The animals were randomly allocated to experimental groups. Investigators were blinded to the group allocation during the animal experiments. […] The protocol was reviewed and approved by the Emory Institutional Animal Care and Use Committee. Rabbit anti-tau N368 (1:1,000), and anti-APP585N (1:500) antibody, which specifically recognize the δ-secretase-derived tau and APP fragments respectively, were described previously. […] TUNEL in situ cell death detection kit was from Roche (Indianapolis, IN). […] All chemicals not included above were purchased from Sigma-Aldrich (St. Louis, MO). Recombinant δ-secretase was obtained from Sino Biological (Beijing, China), recombinant cathepsin-S was obtained from Athens Research and Technology (Athens, GA), recombinant caspase-3 and caspase-8 were obtained from Millipore (Billerica, MA).
Synaptic density was determined by electron microscopy as described previously. After deep anaesthesia, mice were perfused transcardially with 2% glutaraldehyde and 3% paraformaldehyde in PBS. Hippocampal slices were post-fixed in cold 1% OsO4 for 1 h. Samples were prepared and examined using standard procedures. Ultrathin sections (90 nm) were stained with uranyl acetate and lead acetate and viewed at 100 kV in a JEOL 200CX electron microscope. Four mice were examined in each group. Synapses were identified by the presence of synaptic vesicles and post synaptic densities.
Electrophysiological analysis was carried out as described previously. […] The hippocampi were cut into 400-μm thick transverse slices with a vibratome. A 0.1 MΩ tungsten monopolar electrode was used to stimulate the Schaffer collaterals. The field excitatory post synaptic potentials (fEPSPs) were recorded in CA1 stratum radiatum by a glass microelectrode filled with a-CSF with resistance of 3–4 MΩ. The stimulation output (Master-8; AMPI, Jerusalem) was controlled by the trigger function of an EPC9 amplifier (HEKA Elektronik, Lambrecht, Germany). fEPSPs were recorded under current-clamp mode. Data were filtered at 3 kHz and digitized at sampling rates of 20 kHz using Pulse software (HEKA Elektronik). The stimulus intensity (0.1 ms duration, 10–30 μA) was set to evoke 40% of the maximum f-EPSP and the test pulse was applied at a rate of 0.033 Hz. LTP of fEPSPs was induced by three theta-burst-stimulation (TBS; 4 pulses at 100 Hz, repeated three times with a 200-ms interval). Paired-pulse facilitation (PPF) was examined by applying pairs of pulses, which were separated by 20–500 ms intervals. The magnitudes of LTP are expressed as the mean percentage of baseline fEPSP initial slope.
The mice were trained in a round, water-filled tub (52′ diameter) in an environment rich with extra maze cues. An invisible escape platform was located in a fixed spatial location 1 cm below the water surface independent of a subject's start position on a particular trial. In this manner, subjects needed to utilize extra maze cues to determine the platform's location. At the beginning of each trial, the mouse was placed in the water maze with their paws touching the wall from 1 of 4 different starting positions (N, S, E, W). […] On reaching the invisible escape platform, subjects were left on it for an additional 5 s to allow for survey of the spatial cues in the environment to guide future navigation to the platform. After each trial, subjects were dried and kept in a dry plastic holding cage filled with paper towels to allow the subjects to dry off. […] The percentage of time that was spent in the quadrant, which previously contained the escape platform during task acquisition, was measured over 60 s. All trials were analysed for latency, swim path length and swim speed by means of MazeScan (Clever Sys, Inc.).
The solution was changed each day.

5XFAD mice = test system: 5XFAD mice
Method: as §1
The mice were trained in a round, water-filled tub (52′ diameter) in an environment rich with extra maze cues. An invisible escape platform was located in a fixed spatial location 1 cm below the water surface independent of a subject's start position on a particular trial. In this manner, subjects needed to utilize extra maze cues to determine the platform's location. At the beginning of each trial, the mouse was placed in the water maze with their paws touching the wall from 1 of 4 different starting positions (N, S, E, W). […] On reaching the invisible escape platform, subjects were left on it for an additional 5 s to allow for survey of the spatial cues in the environment to guide future navigation to the platform. After each trial, subjects were dried and kept in a dry plastic holding cage filled with paper towels to allow the subjects to dry off. The temperature of the water was monitored every hour so that mice were tested in water that was between 22 and 25 °C. Following the 5 days of task acquisition, a probe trial was presented during which the platform was removed. The percentage of time that was spent in the quadrant, which previously contained the escape platform during task acquisition, was measured over 60 s. All trials were analysed for latency, swim path length and swim speed by means of MazeScan (Clever Sys, Inc.).
After rinsed in distilled water, the sections were transferred to blocking solution (1% sodium hydroxide and 0.9% hydrogen peroxide) for 20 min. […] The sections were washed with 50% ethanol and placed in distilled water. Then the sections were covered with glass cover using mounting solution.
To detect the Aβ deposition in 5XFAD mice, the mice brains were homogenized in 8 × mass of 5 M guanidine HCl/50 mM Tris–HCl (pH 8.0), and incubated at room temperature for 3 h. Then the samples were diluted with cold reaction buffer (phosphate buffered saline with 5% BSA and 0.03% Tween 20, supplemented with protease inhibitor cocktail) and centrifuged at 16,000g for 20 min at 4 °C. The supernatant were analysed by human Aβ42 and Aβ40 ELISA kit according to the manufacturer's instructions (KHB3441 and KHB3481, Invitrogen). The Aβ42 and Aβ40 concentrations were determined by comparison with the standard curve. The concentrations of IL-1β and TNFα in the mice brain were detected using mouse IL-1β and TNFα ELISA kit from eBioscience according to the manufacture's instructions.

GAPDH = biological target: T1, GAPDH (Mus musculus, UniProt P16858); assay: GAPDH activity assay in primary neurons; type: cell-based
T1 construct: GAPDH activity in primary neurons; endogenous in cells; host or cells: primary neurons (mouse cortical)
T1 sequence (P16858 whole entry): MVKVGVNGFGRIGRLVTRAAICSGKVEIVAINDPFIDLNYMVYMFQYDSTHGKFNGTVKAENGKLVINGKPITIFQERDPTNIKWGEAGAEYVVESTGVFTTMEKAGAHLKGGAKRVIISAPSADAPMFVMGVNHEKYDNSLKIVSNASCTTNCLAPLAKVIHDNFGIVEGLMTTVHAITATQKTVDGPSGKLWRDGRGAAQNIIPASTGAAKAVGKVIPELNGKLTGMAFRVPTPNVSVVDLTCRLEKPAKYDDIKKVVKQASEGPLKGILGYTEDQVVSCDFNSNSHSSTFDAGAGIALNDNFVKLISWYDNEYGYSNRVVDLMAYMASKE
Method: GAPDH activity was assessed using the GAPDH Activity Assay Kit (Biovision) according to the manufacture's instructions.

For `Nc1ccc(N2CCOCC2)c2nonc12` [compound 11, 7-(morpholin-4-yl)-2,1,3-benzoxadiazol-4-amine], which “phosphorylation, aggregation and oligomerization of tau” value (tau P301S mice; 10 mg kg−1 d−1 oral, 3 months) is on record?
Its value is “attenuated”.

What about the “cleavage of mouse and human tau after N368” value (tau P301S mice; 10 mg kg−1 d−1 oral, 3 months, Western blot) of the same molecule?
Its value is “decreased the cleavage”.

And the “Morris water maze latency to platform” value (tau P301S mice; five acquisition days)?
Its value is “decreased latency to platform”.

What about the “percentage of AT8- and AT100-positive neurons” value (tau P301S mice; hippocampus and cortex) of the same molecule?
The value was “decreased”.

And the “percentage of neurons positive of tau N368” value (tau P301S mice; hippocampus and cortex, immunohistochemistry)?
The value was “decreased”.

What about the LTP amplitude (tau P301S mice; mouse, in vivo) of the same molecule?
Its LTP amplitude is “significantly elevated the LTP amplitude”.

What about the “behavioural deficits in probe trial (time in target quadrant)” value (tau P301S mice; mouse, in vivo) of the same molecule?
The value was “ameliorated”.

What about the “dendritic spine density (Golgi stain)” value (tau P301S mice; mouse, in vivo) of the same molecule?
Its value is “increased the density of spines”.

And the swim speed (tau P301S mice; mouse, in vivo)?
Its swim speed is “not affected”.

And the “concentrations of IL-1β and TNFα” value (tau P301S mice; tau P301S mice)?
The value was “reduced the concentrations of inflammatory cytokines IL-1β and TNFα”.

And the “activity of δ-secretase in the brain” value (tau P301S mice; wild-type and tau P301S mice, 10 mg kg−1 d−1 oral, 3 months)?
Its value is “significantly inhibited”.

What about the “Aβ deposition, time and dose dependence” value (5XFAD mice; 2, 5 or 10 mg kg−1 d−1 for 1.5 and 3 months) of the same molecule?
The value was “attenuated Aβ deposition in a time- and dose-dependent manner”.

What about the “concentrations of IL-1β and TNFα” value (5XFAD mice; 5XFAD mice) of the same molecule?
Its value is “reduced the concentrations of inflammatory cytokines IL-1β and TNFα”.

What about the “activity of δ-secretase in mice brain” value (5XFAD mice; 5XFAD, oral once daily, 3 months) of the same molecule?
The value was “significantly inhibited”.

And the “concentrations of Aβ 1–40 and Aβ 1–42 in brain lysates” value (5XFAD mice; ELISA)?
Its value is “significantly decreased”.

What about the “cleavage of APP by δ-secretase at N373 and N585” value (5XFAD mice; Western blot) of the same molecule?
The value was “decreased the cleavage of APP”.

What about the “Morris water maze distance to platform” value (5XFAD mice; acquisition) of the same molecule?
The value was “decreased distance to platform”.

What about the LTP deficits (5XFAD mice; mouse, in vivo) of the same molecule?
Its LTP deficits is “significantly reversed the LTP deficits”.

What about the “density of spines (Golgi stain)” value (5XFAD mice; mouse, in vivo) of the same molecule?
Its value is “increased the density of spines”.

What about the “expression of C83” value (5XFAD mice; mouse, in vivo) of the same molecule?
Its value is “not altered”.

And the “expression of C99” value (5XFAD mice; mouse, in vivo)?
The value was “decreased”.

What about the “plaque deposition in hippocampus and frontal cortex (Thioflavin S)” value (5XFAD mice; mouse, in vivo) of the same molecule?
The value was “attenuated”.

What about the “probe test, time in target quadrant” value (5XFAD mice; mouse, in vivo) of the same molecule?
Its value is “spent more time in the target quadrant”.

What about the swim speed (5XFAD mice; mouse, in vivo) of the same molecule?
Its swim speed is “not affected”.

What about the GAPDH inhibition (GAPDH; 2 μM) of the same molecule?
Its GAPDH inhibition is “failed to inhibit GAPDH”.

And the GAPDH inhibition (GAPDH; 50 μM)?
The GAPDH inhibition was “some inhibitory effect”.
